{
  "source": "patent US20250099382A1",
  "about": "“Colloidal suspension of nutraceutical ingredients to treat traumatic brain injury” (priority 2023, published 2025)",
  "key": {"[1]": {"system": "mice", "details": "PubChem.gov, cited from earlier work"}, "[2]": {"system": "mice", "experiment": "LD50 reported by PubChem.gov, human conversion with the mouse factor 12.3", "details": "LD50 divided by 12.3, times 65 kilograms", "description": "Much of the research for toxicity and efficacy studies is preclinical, which necessitates a conversion of preclinical data to human equivalent data for interpretation of implications of preclinical data to clinical studies. […] For conversion of preclinical data from mice to human, divide the mg/kg dosage by 12.3. One would then multiply the result by an approximated average weight in kilograms for human clinical subjects to establish a preliminary clinical dosage. For example, if the preclinical dosage indicating drug efficacy were 100 mg/kg, this dosage would be divided by 12.3 to get 8.13 mg/kg, which would then be multiplied by an average weight in kilograms designated for the clinical study. For an average clinical subject weight of 65 kilograms, the original 100 mg/kg preclinical dosage would translate to 528 mg, which would be the preliminary dosage for clinical studies. For conversion of preclinical data from rat to human, the animal dosage would be divided by 6.2, then multiplied by the average subject weight in kilograms for the clinical study.\nTo convert this preclinical data to human equivalent data, 2.2 grams divided by 12.3 is 179 mg, times 65 kilograms for a human subject weighing 65 kg is approximately 11.6 grams.\nFor human equivalency dosage, 100 mg/kg divided by 12.3 is 8.13 mg/kg, times 65 for a 65-kilogram clinical subject is 528 mg/kg. […]"}, "[3]": {"system": "rat", "experiment": "LD50 reported by PubChem.gov, rat", "details": "for human equivalent of LD50: LD50 divided by 6.2 (rat), times 65 kilograms"}, "[4]": {"system": "rat", "details": "PubChem.gov, cited from earlier work; for LD50: rat, route not stated"}, "[5]": {"system": "TBI", "details": "100 mg/kg, rats; cited from earlier work"}, "[6]": {"system": "human lymphocytes", "details": "human lymphocytes in culture; cited from earlier work"}, "[7]": {"system": "platelets", "details": "cited from earlier work"}, "[8]": {"system": "weight drop contusion TBI", "details": "100 mg/kg to mice after weight drop contusion TBI; cited from earlier work"}, "[9]": {"system": "rats", "details": "up to 5 grams per kilogram for 60 days; cited from earlier work"}, "[10]": {"system": "mice", "details": "up to 5 grams per kilogram for 60 days; cited from earlier work"}},
  "data": [
    {"compound": "N[C@@H](CCC(=O)N[C@@H](CS)C(=O)NCC(=O)O)C(=O)O", "note": "[GSH, Glutathione]", "values": [
      {"measurement": "LD50, intravenous", "setting": "[1]; intravenous", "result": "2.2 grams per kilogram of animal weight"},
      {"measurement": "human equivalent of intravenous LD50", "setting": "[2]", "result": "approximately 11.6 grams"}
    ]},
    {"compound": "CC(=O)O[C@H](CC(=O)[O-])C[N+](C)(C)C", "note": "[acetyl L-carnitine, Acetyl L-carnitine]", "values": [
      {"measurement": "human equivalent dosage of intravenous LD50", "setting": "[3]; LD50 divided by 6.2, times 65 for a 65-kilogram human patient", "result": 13.2, "unit": "grams"},
      {"measurement": "LD50, intravenous", "setting": "[4]; intravenous, rat species", "result": "1,265 mg/kg"}
    ]},
    {"compound": "Oc1ccc(C=Cc2cc(O)cc(O)c2)cc1", "note": "[resveratrol, 3,5,4′-Trihydroxystilbene]", "values": [
      {"measurement": "secondary injury from TBI", "setting": "[5]", "result": "significantly attenuated secondary injury from TBI"},
      {"measurement": "genetic damage induced by permethrin", "setting": "[6]", "result": "diminishes genetic damage induced by permethrin"}
    ]},
    {"compound": "NCCS(=O)(=O)O", "note": "[taurine]", "values": [
      {"measurement": "human equivalent of LD50", "setting": "[3]", "result": 74, "unit": "grams"},
      {"measurement": "LD50", "setting": "[4]", "result": "greater than 7 grams per kilogram"}
    ]},
    {"compound": "COc1cc(/C=C/C(=O)CC(=O)/C=C/c2ccc(O)c(OC)c2)ccc1O", "note": "[curcumin, Curcumin]", "values": [
      {"measurement": "production of thromboxane A2 by platelets", "setting": "[7]", "result": "reduced the production of thromboxane A2 by platelets"},
      {"measurement": "recovery after TBI", "setting": "[8]", "result": "Major improvements in recovery were noted"},
      {"measurement": "LD50", "setting": "[1]; route not stated", "result": "greater than 2 grams per kilogram of animal weight"},
      {"measurement": "human equivalent of LD50", "setting": "[2]", "result": "approximately 10.6 grams"}
    ]},
    {"compound": "Nc1ncnc2c1ncn2[C@@H]1O[C@H](COP(=O)([O-])OP(=O)([O-])OP(=O)([O-])[O-])[C@@H](O)[C@H]1O.[Mg+2].[Mg+2]", "note": "[ATP, Adenosine triphosphate magnesium]", "values": [
      {"measurement": "human equivalent of LD50", "setting": "[3]", "result": "> 21", "unit": "grams"},
      {"measurement": "LD50", "setting": "[4]", "result": "greater than 2 grams per kilogram"}
    ]},
    {"compound": "Fulvic acid", "values": [
      {"measurement": "toxicity or genotoxicity", "setting": "[9]", "result": "No toxicity or genotoxicity was found"},
      {"measurement": "toxicity or genotoxicity", "setting": "[10]", "result": "No toxicity or genotoxicity was found"}
    ]}
  ]
}
